Among the test systems are A498; A549; CCRF-CEM; COLO 205; HCT-15; MCF7; Malme-3M; NCI-H23; NCI-H522; NCI/ADR-RES; SK-MEL-28; SK-MEL-5; SK-OV-3; SN12C; SR; UO-31; HL-60; SF-268; RXF 393.
What all share (test): DTP human tumour cell line panel, 48 h

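96-well plates; 48 h exposure; 5 concentrations. Endpoints by linear interpolation between flanking doses. Not reached: highest tested concentration assigned. The concentration for 50% growth inhibition is given as GI50.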 Active and inactive are the calls of the source. Cut-off read from the data, not from the text of the source: active = GI50 up to about 1.1 µM and inactive = higher.

For orientation: GI50 means the concentration at which growth is held to half of that of the control.

Turning to `COc1ccc(NCc2cccc3c(=O)c4ccc(Cl)cc4oc23)cc1`, the GI50 in the experiment on A498 was > 100 µM (inactive); in the experiment on A549 it was > 100 µM (inactive); in the experiment on CCRF-CEM it was > 100 µM (inactive); in the experiment on COLO 205, > 100 µM (inactive); with HCT-15 it was more than 100 µM; in the experiment on MCF7 it was > 100 µM (inactive). In addition, the GI50 in the experiment with Malme-3M, in the experiment with NCI-H23, with NCI-H522, in the experiment with NCI/ADR-RES, in the experiment on SK-MEL-28 and with SK-MEL-5 was > 100 µM (inactive) throughout. Also, the GI50 in the experiment on SK-OV-3, in the experiment on SN12C, in the experiment on SR and with UO-31 was > 100 µM (inactive) throughout.

Consider `O=C1OC(C2Cc3ccc4c(c3C2=O)CCCC4)c2ccccc21` (stereo not given), for which the GI50 in the experiment with A498 is 16.8 µM (inactive); in the experiment on A549, 35.9 µM (inactive); in the experiment on CCRF-CEM, 15.3 µM (inactive); in the experiment with COLO 205 it was 46.8 µM (inactive); in the experiment with HCT-15 it was 28.4 µM; with HL-60, 71.3 µM (inactive). Also, the GI50 is 33.9 µM (inactive) with MCF7; 24 µM (inactive) in the experiment with Malme-3M; 42.7 µM (inactive) in the experiment with NCI-H23; 48.4 µM (inactive) in the experiment on NCI-H522; 46 µM (inactive) with NCI/ADR-RES; 49.2 µM (inactive) with SF-268. Moreover, the GI50 in the experiment with SK-MEL-28 was 52.5 µM (inactive); with SK-MEL-5 it was 33.4 µM (inactive); in the experiment on SK-OV-3, 73.6 µM (inactive); in the experiment on SN12C it was 28.5 µM (inactive); with SR, > 10 µM (inactive); in the experiment with UO-31 it was 50 µM (inactive).

Turning to `COc1cc(/C=C/C(=O)CC(=O)/C=C/c2cc(C)c(O)c(OC)c2)cc(C)c1O`, the GI50 in the experiment on A498 was > 100 µM (inactive); in the experiment on A549, > 100 µM (inactive); in the experiment with CCRF-CEM it was 65.6 µM (inactive); in the experiment with COLO 205 it was > 100 µM (inactive); in the experiment with HCT-15 it was more than 100 µM; with HL-60 it was 38.9 µM (inactive). Further, the GI50 in the experiment on MCF7 was 52.8 µM (inactive); in the experiment on Malme-3M, > 100 µM (inactive); in the experiment with NCI-H23, > 100 µM (inactive); with NCI-H522, > 100 µM (inactive); in the experiment on NCI/ADR-RES, > 100 µM (inactive); in the experiment on SF-268 it was > 100 µM (inactive). In addition, the GI50 with SK-MEL-28 is > 100 µM (inactive); in the experiment on SK-MEL-5 it was > 100 µM (inactive); with SK-OV-3 it was > 100 µM (inactive); in the experiment on SN12C, > 100 µM (inactive); in the experiment with SR, 6.82 µM (inactive); in the experiment on UO-31, > 100 µM (inactive).

For the molecule `CC(O)C1(CNc2cc(Cl)nc(N)n2)CCC1` (stereo not given), the GI50 in the experiment with A549 is > 100 µM (inactive); in the experiment on CCRF-CEM it was > 100 µM (inactive); in the experiment with HCT-15, more than 100 µM; in the experiment on HL-60 it was > 100 µM (inactive); with MCF7, > 100 µM (inactive); in the experiment with Malme-3M, > 100 µM (inactive). The GI50 with NCI-H23 is > 100 µM (inactive); in the experiment with NCI-H522, > 100 µM (inactive); with NCI/ADR-RES, > 100 µM (inactive); with RXF 393 it was 24.2 µM (inactive); with SK-MEL-28, > 100 µM (inactive); in the experiment on SK-MEL-5 it was 70.1 µM (inactive). For the same molecule, the GI50 in the experiment on SK-OV-3, with SN12C, with SR and with UO-31 was > 100 µM (inactive) each time.

As to `CCOC(=O)c1cccc([N+](=O)[O-])c1N`, the GI50 in the experiment on A498 is 66.2 µM (inactive); in the experiment with A549 it was > 100 µM (inactive); with CCRF-CEM, > 100 µM (inactive); with COLO 205, > 100 µM (inactive); in the experiment with HCT-15 it was more than 100 µM; in the experiment on HL-60, > 100 µM (inactive). Also, the GI50 in the experiment on MCF7 was > 100 µM (inactive); in the experiment on Malme-3M, 19.1 µM (inactive); with NCI-H23, > 100 µM (inactive); in the experiment on NCI-H522, > 100 µM (inactive); with NCI/ADR-RES, > 100 µM (inactive); in the experiment on SK-MEL-28, > 100 µM (inactive). In addition, the GI50 in the experiment on SK-MEL-5, with SK-OV-3, in the experiment with SN12C, in the experiment on SR and with UO-31 was > 100 µM (inactive) throughout.

`Clc1nc(Cl)c(Cc2ccccc2)c(Cl)n1`: the GI50 is 12.5 µM (inactive) in the experiment on A549; 3.27 µM (inactive) in the experiment on CCRF-CEM; 6.46 µM (inactive) in the experiment on COLO 205; 4.55 µM with HCT-15; 7.45 µM (inactive) with HL-60; 5.12 µM (inactive) in the experiment with MCF7. Moreover, the GI50 with Malme-3M was 5.35 µM (inactive); in the experiment with NCI-H23, 8.32 µM (inactive); in the experiment on NCI-H522 it was 1.19 µM (inactive); with NCI/ADR-RES it was 4.8 µM (inactive); in the experiment with RXF 393, 4.21 µM (inactive); with SF-268 it was 18.6 µM (inactive). The GI50 with SK-MEL-28 was 10.5 µM (inactive); in the experiment on SK-MEL-5, 2.37 µM (inactive); in the experiment with SK-OV-3, 11.5 µM (inactive); in the experiment on SN12C, 4.39 µM (inactive); in the experiment on SR, 4.26 µM (inactive); in the experiment with UO-31, 18.2 µM (inactive).

Turning to `C[C@@H]([C@H]1CC[C@@]2(C)[C@@H]3CC[C@@H]4C(=CC3=CC[C@]12C)CC[C@H](N(C)C)C4(C)C)N(C)C` [BUXAMINE A], the GI50 is > 100 µM (inactive) with CCRF-CEM; > 100 µM (inactive) in the experiment on COLO 205; more than 100 µM with HCT-15; > 100 µM (inactive) in the experiment on HL-60; > 100 µM (inactive) with MCF7; > 100 µM (inactive) in the experiment with Malme-3M. Besides, the GI50 in the experiment on NCI-H23, in the experiment with NCI-H522, in the experiment with NCI/ADR-RES, in the experiment with RXF 393, in the experiment on SF-268 and in the experiment on SK-MEL-28 was > 100 µM (inactive) throughout. Besides, the GI50 with SK-MEL-5, in the experiment with SK-OV-3, in the experiment with SN12C and in the experiment with SR was > 100 µM (inactive) in each case.

On to `Oc1cnc2c(O)cccc2c1` [JINEOL], for which the GI50 in the experiment on A498 is > 100 µM (inactive); with A549, 40.7 µM (inactive); in the experiment with HCT-15 it was 33.5 µM; with HL-60, 31.5 µM (inactive); in the experiment with MCF7 it was 30.7 µM (inactive); in the experiment on Malme-3M, 34.8 µM (inactive). Besides, the GI50 with NCI-H522 is 19.2 µM (inactive); with NCI/ADR-RES, 18.2 µM (inactive); in the experiment with SF-268, 33.2 µM (inactive); in the experiment with SK-MEL-28, 76.6 µM (inactive); in the experiment on SK-OV-3 it was 32.6 µM (inactive); in the experiment with SN12C it was 37.5 µM (inactive). The GI50 in the experiment on SR is 40.6 µM (inactive); in the experiment on UO-31 it was 30.8 µM (inactive).

With `O=C(Nc1ccc(F)cc1)c1cc2ccc(O)cc2o/c1=N\c1cccc(F)c1`, the GI50 was 43 µM (inactive) in the experiment on A498; 15.2 µM (inactive) in the experiment with CCRF-CEM; > 100 µM (inactive) with COLO 205; 27.5 µM in the experiment with HCT-15; 27.3 µM (inactive) in the experiment on HL-60; 32.8 µM (inactive) in the experiment with MCF7. Further, the GI50 in the experiment with Malme-3M was 20.2 µM (inactive); in the experiment with NCI-H23 it was 19.9 µM (inactive); with NCI-H522, 16.4 µM (inactive); in the experiment on NCI/ADR-RES it was 28.2 µM (inactive); in the experiment with SF-268, 43.1 µM (inactive); in the experiment on SK-MEL-28 it was 45.7 µM (inactive). The GI50 with SK-MEL-5 is 16.1 µM (inactive); in the experiment with SK-OV-3, 51.6 µM (inactive); in the experiment on SN12C, 38.9 µM (inactive); in the experiment with SR, 33.3 µM (inactive).

With `CCOC(=O)C(=O)/C(=C/NC(=S)Nc1ccc(Cl)c(Cl)c1)C(=O)OCC`, the GI50 was > 100 µM (inactive) in the experiment with A549; 53.3 µM (inactive) in the experiment with CCRF-CEM; 67.9 µM (inactive) in the experiment on COLO 205; more than 100 µM in the experiment on HCT-15; 15.9 µM (inactive) with HL-60; 62.2 µM (inactive) with MCF7. For the same molecule, the GI50 in the experiment with Malme-3M was > 100 µM (inactive); with NCI-H23, 70 µM (inactive); with NCI/ADR-RES, 50.1 µM (inactive); in the experiment with RXF 393, 37.8 µM (inactive); with SF-268, > 100 µM (inactive); in the experiment on SK-MEL-28, > 100 µM (inactive). The GI50 with SK-MEL-5 is 27.6 µM (inactive); in the experiment with SK-OV-3, > 100 µM (inactive); in the experiment on SN12C, 88.3 µM (inactive); with SR, 30.5 µM (inactive); in the experiment with UO-31, 27.5 µM (inactive).

For the molecule `COc1ccc(/C=C/c2cc(OC)cc(=O)o2)cc1` [YANGONIN], the GI50 with A549 was > 100 µM (inactive); in the experiment on CCRF-CEM it was > 100 µM (inactive); in the experiment with COLO 205, > 100 µM (inactive); in the experiment on HCT-15 it was more than 100 µM; in the experiment on HL-60 it was > 100 µM (inactive); with MCF7, > 100 µM (inactive). Also, the GI50 with Malme-3M was > 100 µM (inactive); in the experiment with NCI-H23 it was 51.8 µM (inactive); in the experiment on NCI/ADR-RES, > 100 µM (inactive); in the experiment with RXF 393, 44.2 µM (inactive); with SF-268, 60.1 µM (inactive); in the experiment with SK-MEL-28, > 100 µM (inactive). Moreover, the GI50 in the experiment on SK-MEL-5 is > 100 µM (inactive); with SK-OV-3, 91.4 µM (inactive); in the experiment with SN12C it was > 100 µM (inactive); in the experiment with SR, > 100 µM (inactive); in the experiment with UO-31, > 100 µM (inactive).

As for `CCN(CC)c1ccc2cc(-c3nnc(-c4ccccc4O)o3)c(=O)oc2c1`, the GI50 with A498 was 13 µM (inactive); with A549, 13.6 µM (inactive); in the experiment with CCRF-CEM, 2.37 µM (inactive); with COLO 205 it was 7.66 µM (inactive); in the experiment with HCT-15, 5.75 µM; with HL-60 it was 4.56 µM (inactive). For the same molecule, the GI50 with MCF7 is 10.3 µM (inactive); in the experiment on Malme-3M it was 14.9 µM (inactive); in the experiment on NCI-H23, 8.93 µM (inactive); in the experiment on NCI-H522, 5.43 µM (inactive); with NCI/ADR-RES, 10.5 µM (inactive); in the experiment with SF-268, 6.92 µM (inactive). Also, the GI50 in the experiment on SK-MEL-28 was 11.7 µM (inactive); in the experiment with SK-MEL-5, 6.93 µM (inactive); in the experiment on SK-OV-3, 17.1 µM (inactive); in the experiment with SR it was 5.87 µM (inactive); in the experiment on UO-31 it was 10.4 µM (inactive).
